This note sets out measurements from ChEMBL document CHEMBL3045429, “Exploration of antimicrobial potential of pyrazolo[3,4-b]pyridine scaffold bearing benzenesulfonamide and trifluoromethyl moieties” (2013).

Experiment [1] has as its system Bacillus subtilis. Nature of the experiment: Antibacterial activity against Bacillus subtilis MTCC 121 assessed as growth inhibition at 4 mg/mL after 24 hr by agar well diffusion method. It counts as functional. The conditions noted are these: MTCC 121, 24 h, read-out: DIZ.
The subject of experiment [2] is Saccharomyces cerevisiae. As to the kind of experiment: Antifungal activity against Saccharomyces cerevisiae MTCC 170 assessed as growth inhibition at 4 mg/mL after 24 hr by agar well diffusion method. It counts as functional. The conditions noted are these: MTCC 170, 24 h, read-out: DIZ.
For experiment [3], the system named is Staphylococcus aureus. Nature of the experiment: Antibacterial activity against Staphylococcus aureus MTCC 96 assessed as growth inhibition at 4 mg/mL after 24 hr by agar well diffusion method. It counts as functional. The settings on record: MTCC 96, 24 h, read-out: DIZ.
In experiment [4] the test system is Staphylococcus aureus. As to the kind of experiment: Antibacterial activity against Staphylococcus aureus MTCC 96 assessed as growth inhibition after 24 hr by agar well diffusion method. The format is functional. The settings on record: MTCC 96, 24 h.
For experiment [5], the system named is Candida albicans. As to the kind of experiment: Antifungal activity against Candida albicans MTCC 227 assessed as growth inhibition after 24 hr by agar well diffusion method. The format is functional. The settings on record: MTCC 227, 24 h.
The test system of the next experiment is Escherichia coli. Nature of the experiment: Antibacterial activity against Escherichia coli MTCC 1652 assessed as growth inhibition at 4 mg/mL after 24 hr by agar well diffusion method. It counts as functional, organism-based.
In experiment [6] the test system is Bacillus subtilis. As to the kind of experiment: Antibacterial activity against Bacillus subtilis MTCC 121 assessed as growth inhibition after 24 hr by agar well diffusion method. It counts as functional. The settings on record: MTCC 121, 24 h.
Experiment [7] deals with Saccharomyces cerevisiae. Nature of the experiment: Antifungal activity against Saccharomyces cerevisiae MTCC 170 assessed as growth inhibition after 24 hr by agar well diffusion method. It counts as functional. The settings on record: MTCC 170, 24 h.
The subject of experiment [8] is Candida albicans. Nature of the experiment: Antifungal activity against Candida albicans MTCC 227 assessed as growth inhibition at 4 mg/mL after 24 hr by agar well diffusion method. The settings on record: MTCC 227, 24 h, read-out: DIZ. It counts as functional.
The next experiment relates to Pseudomonas aeruginosa. Nature of the experiment: microbe, parasite or virus in culture. The settings on record: MTCC 741, 24 h, read-out: DIZ.

Each structure is given as a SMILES string. Values after ≈ are worked out from the molar mass of the structure shown. Active and inactive are the calls of the source. The rule behind the calls is not given here.

Description for Pseudomonas aeruginosa: Antibacterial activity against Pseudomonas aeruginosa MTCC 741 assessed as growth inhibition at 4 mg/mL after 24 hr by agar well diffusion method

For `NS(=O)(=O)c1ccc(-n2nc(-c3ccccc3)c3c(C(F)(F)F)cc(-c4ccc(F)cc4)nc32)cc1`, the zone of inhibition at 4000 µg/mL turned out to be 19.6 mm in the experiment with Bacillus subtilis [1], 15.3 mm with Saccharomyces cerevisiae [2], 17.6 mm in the experiment with Staphylococcus aureus [3] and 14.6 mm in the experiment on Candida albicans [8]. The MIC is 128 µg/mL (≈ 250 µM) with Staphylococcus aureus [4], 128 µg/mL (≈ 250 µM) with Candida albicans [5], 64 µg/mL (≈ 125 µM) with Bacillus subtilis [6] and 64 µg/mL (≈ 125 µM) in the experiment with Saccharomyces cerevisiae [7]. The “growth inhibition (GI)” value with Escherichia coli was “inactive”.

With `Cc1ccc(-c2nn(-c3ccc(S(N)(=O)=O)cc3)c3nc(-c4ccc5ccccc5c4)cc(C(F)(F)F)c23)cc1`, the zone of inhibition at 4000 µg/mL is 15.6 mm with Bacillus subtilis [1], 15.6 mm in the experiment with Saccharomyces cerevisiae [2], 15.6 mm with Staphylococcus aureus [3] and 18.3 mm in the experiment with Candida albicans [8]. In addition, the MIC in the experiment on Staphylococcus aureus [4] worked out at 128 µg/mL (≈ 229 µM); in the experiment with Candida albicans [5] it was 32 µg/mL (≈ 57.3 µM); in the experiment with Bacillus subtilis [6] it was 128 µg/mL (≈ 229 µM); with Saccharomyces cerevisiae [7] it was 32 µg/mL (≈ 57.3 µM). For the same compound, the “growth inhibition (GI)” value in the experiment on Escherichia coli was “inactive”.

As to `Cc1cc(C(F)(F)F)c2c(-c3ccccc3)nn(-c3ccc(S(N)(=O)=O)cc3)c2n1`, the zone of inhibition at 4000 µg/mL in the experiment with Bacillus subtilis [1] is 20.3 mm; in the experiment on Saccharomyces cerevisiae [2], 15.3 mm; in the experiment on Staphylococcus aureus [3], 19.3 mm; with Candida albicans [8], 16.3 mm. Further, the MIC in the experiment with Staphylococcus aureus [4], in the experiment with Candida albicans [5], in the experiment with Bacillus subtilis [6] and in the experiment on Saccharomyces cerevisiae [7] was 64 µg/mL (≈ 148 µM) in each case. In the experiment with Escherichia coli, the “growth inhibition (GI)” value is “inactive”.

As to `Cc1ccc(-c2cc(C(F)(F)F)c3c(-c4ccccc4)nn(-c4ccc(S(N)(=O)=O)cc4)c3n2)cc1`, the zone of inhibition at 4000 µg/mL in the experiment with Bacillus subtilis [1] worked out at 20.3 mm; with Saccharomyces cerevisiae [2], 15.6 mm; in the experiment on Staphylococcus aureus [3], 21.3 mm; in the experiment on Candida albicans [8], 16.3 mm. Besides, the MIC with Staphylococcus aureus [4] is 32 µg/mL (≈ 62.9 µM); in the experiment on Candida albicans [5] it was 64 µg/mL (≈ 126 µM); in the experiment with Bacillus subtilis [6], 64 µg/mL (≈ 126 µM); with Saccharomyces cerevisiae [7] it was 64 µg/mL (≈ 126 µM). For the same compound, the “growth inhibition (GI)” value in the experiment on Escherichia coli was “inactive”.

Take `O=C(O)c1cn(C2CC2)c2cc(N3CCNCC3)c(F)cc2c1=O` [CIPROFLOXACIN]: the zone of inhibition at 4000 µg/mL in the experiment with Bacillus subtilis [1] was found to be 24 mm; in the experiment with Staphylococcus aureus [3], 26.6 mm; in the experiment with Pseudomonas aeruginosa, 22 mm. In addition, the MIC in the experiment with Staphylococcus aureus [4] and in the experiment with Bacillus subtilis [6] was 5 µg/mL (≈ 15.1 µM) in each case.

Regarding `NS(=O)(=O)c1ccc(-n2nc(-c3ccccc3)c3c(C(F)(F)F)cc(C(F)(F)F)nc32)cc1`, the zone of inhibition at 4000 µg/mL amounted to 21.6 mm with Bacillus subtilis [1], 14.6 mm in the experiment on Saccharomyces cerevisiae [2], 22.6 mm in the experiment with Staphylococcus aureus [3] and 15.6 mm in the experiment with Candida albicans [8]. For the same compound, the MIC in the experiment with Staphylococcus aureus [4] worked out at 32 µg/mL (≈ 65.8 µM); in the experiment with Candida albicans [5], 64 µg/mL (≈ 132 µM); with Bacillus subtilis [6], 32 µg/mL (≈ 65.8 µM); in the experiment with Saccharomyces cerevisiae [7], 128 µg/mL (≈ 263 µM). Besides, the “growth inhibition (GI)” value in the experiment with Escherichia coli was “inactive”.

Turning to `NS(=O)(=O)c1ccc(-n2nc(-c3ccccc3)c3c(C(F)(F)F)cc(-c4ccc(Br)cc4)nc32)cc1`, the zone of inhibition at 4000 µg/mL is 17.6 mm in the experiment on Bacillus subtilis [1], 14.6 mm in the experiment with Saccharomyces cerevisiae [2], 18.3 mm in the experiment with Staphylococcus aureus [3] and 13.6 mm with Candida albicans [8]. The MIC with Staphylococcus aureus [4] was 64 µg/mL (≈ 112 µM); with Candida albicans [5], > 256 µg/mL; in the experiment with Bacillus subtilis [6], 64 µg/mL (≈ 112 µM); in the experiment with Saccharomyces cerevisiae [7], 256 µg/mL (≈ 446 µM). Also, the “growth inhibition (GI)” value with Escherichia coli was “inactive”.

`NS(=O)(=O)c1ccc(-n2nc(-c3ccc(Cl)cc3)c3c(C(F)(F)F)cc(C(F)(F)F)nc32)cc1`: the zone of inhibition at 4000 µg/mL was 15.6 mm in the experiment on Bacillus subtilis [1], 14.6 mm in the experiment on Saccharomyces cerevisiae [2], 16.3 mm with Staphylococcus aureus [3] and 16.3 mm with Candida albicans [8]. The MIC in the experiment with Staphylococcus aureus [4] worked out at 128 µg/mL (≈ 246 µM); with Candida albicans [5] it was 64 µg/mL (≈ 123 µM); in the experiment with Bacillus subtilis [6], 128 µg/mL (≈ 246 µM); in the experiment on Saccharomyces cerevisiae [7] it was 64 µg/mL (≈ 123 µM). The “growth inhibition (GI)” value with Escherichia coli was “inactive”.
